System: aged brain endothelial cells
Test: scRNA-seq of aged brain endothelial cells after pharmacologic ALPL inhibition
Format: in vivo, mice
Source text: FIG. 21A includes an image and histogram showing holo-transferrin uptake in ALPL+/− cortical vasculature (n=6, paired two-sided t-test). FIG. 21B is an MA plot of differentially expressed genes (FDR<0.05) from aged mice after administration of ALPL inhibitor and vehicle (7,036 capillary cells, n=4 mice pooled per group, MAST with Bonferroni correction). FIG. 21C includes violin plots showing transferrin receptor (Tfrc) expression across vessel segments, following the paradigm in FIG. 21B (1,171 arterial, 7,036 capillary, and 430 venous cells, MAST with Bonferroni correction).
Cell lysis, first-strand synthesis and cDNA synthesis was performed using the Smart-seq-2 protocol as described previouslyl39-141 in 384-well format, with some modifications. Briefly, brain endothelial cells (CD31+/CD45−) were sorted using SH800S (Sony) sorters on the highest purity setting (‘Single cell’). Plasma-647 fluorescence was recorded for each cell and corresponding sorted well. cDNA synthesis was performed using the Smart-seq2 protocol140-142. After cDNA amplification (23 cycles), concentrations were determined via the PicoGreen quantitation assay. Cells passing quality control were selected through custom scripts and cDNA concentrations normalized to ˜0.2 ng/μL using the TPPLabtech Mosquito HTS and Mantis (Formulatrix) robotic platforms. Libraries were prepared and pooled using the Nextera XT kits (Illumina), following the manufacturer's instructions. Libraries were then sequenced on the Nextseq or Novaseq (Illumina) using 2×75 bp paired-end reads and 2×8 bp index reads with a 200-cycle kit (Illumina, 20012861). Samples were sequenced at an average of 1.5M reads per cell. Raw sequencing files were demultiplexed with bcl2fastq, reads were aligned using STAR, and gene counts made using HTSEQ version 0.6.1p1. Downstream analysis was performed as previously described58, and plasma fluorescence of each cell correlated (Spearman) with gene expression and zonation59.
Mice were treated with six doses of ALPL inhibitor (613810, Millipore Sigma; 2,5-Dimethoxy-N-(quinolin-3-yl)benzenesulfonamide, Tissue-Nonspecific Alkaline Phosphatase Inhibitor, MLS-0038949; C17H16N2O4S; CAS #496014-13-2) or ‘Vehicle’ control over three days, injected intraperitoneally twice per day (8.75 mg/kg). ‘Vehicle’ treatments consisted of phosphate-buffered saline (PBS) with a matching concentration of DMSO (less than 4% v/v). After the sixth treatment, mice were injected intravenously with 150 μL of Atto 647N-labeled plasma (as above), human holo-transferrin (T4132, Millipore Sigma, 40 mg/kg), transferrin receptor antibody (BE0175, BioXcell, 20 mg/kg), or 3-kDa dextran-FITC (10 mg/kg, Thermo Fisher). Plasma, human holo-transferrin, and transferrin receptor antibody were infused 20 h before sacrifice, while 3-kDa dextran-FITC was given 2 h before sacrifice, as previously described143. After extensive perfusion, CNS cells were isolated as described above. Cell pellets were additionally incubated in Red Blood Cell Lysis Buffer (Millipore Sigma, R7757) for 2 minutes to ensure high CNS cell purity. Brain endothelial cells were distinguished by CD3 I+/CD45− staining and parenchymal cells by CD31−/CD45− staining. […]

Compound: COc1ccc(OC)c(S(=O)(=O)Nc2cnc3ccccc3c2)c1 [ALPL inhibitor, 2,5-Dimethoxy-N-(quinolin-3-yl)benzenesulfonamide]
- TFRC expression on the aged BBB (aged BBB, upon ALPL inhibition): strongly upregulated
- ferroportin expression on the aged BBB (aged BBB, upon ALPL inhibition): strongly upregulated
- transferrin receptor expression increase in capillaries (aged mice, capillary cells, after ALPL inhibition): ~70%
- transferrin receptor expression increase in venous cells (aged mice, venous cells, after ALPL inhibition): ~89%
- pct, ALPL inh., Fcgrt (receptor gene Fcgrt, ALPL inhibitor-treated group): 0.849
- % increase, Fcgrt (receptor gene Fcgrt, aged BBB, ALPL inhibition vs control): 24.2%
- pct, ALPL inh., Lpar6 (receptor gene Lpar6, ALPL inhibitor-treated group): 0.446
- % increase, Lpar6 (receptor gene Lpar6, aged BBB, ALPL inhibition vs control): 37.0%
- pct, ALPL inh., Scarb1 (receptor gene Scarb1, ALPL inhibitor-treated group): 0.45
- % increase, Scarb1 (receptor gene Scarb1, aged BBB, ALPL inhibition vs control): 11.1%
- pct, ALPL inh., Tfrc (receptor gene Tfrc, ALPL inhibitor-treated group): 0.723
- % increase, Tfrc (receptor gene Tfrc, aged BBB, ALPL inhibition vs control): 70.1%
- pct, ALPL inh., Slc6a6 (transporter gene Slc6a6, ALPL inhibitor-treated group): 0.99
- % increase, Slc6a6 (transporter gene Slc6a6, aged BBB, ALPL inhibition vs control): 24.9%
- pct, ALPL inh., Slc7a1 (transporter gene Slc7a1, ALPL inhibitor-treated group): 0.72
- % increase, Slc7a1 (transporter gene Slc7a1, aged BBB, ALPL inhibition vs control): 12.2%
- pct, ALPL inh., Slc16a2 (transporter gene Slc16a2, ALPL inhibitor-treated group): 0.66
- % increase, Slc16a2 (transporter gene Slc16a2, aged BBB, ALPL inhibition vs control): 16.5%
- pct, ALPL inh., Slc16a4 (transporter gene Slc16a4, ALPL inhibitor-treated group): 0.42
- % increase, Slc16a4 (transporter gene Slc16a4, aged BBB, ALPL inhibition vs control): 18.8%
- pct, ALPL inh., Slc22a8 (transporter gene Slc22a8, ALPL inhibitor-treated group): 0.71
- % increase, Slc22a8 (transporter gene Slc22a8, aged BBB, ALPL inhibition vs control): 11.0%
- pct, ALPL inh., Slc25a1 (transporter gene Slc25a1, ALPL inhibitor-treated group): 0.24
- % increase, Slc25a1 (transporter gene Slc25a1, aged BBB, ALPL inhibition vs control): 10.7%
- pct, ALPL inh., Slc26a10 (transporter gene Slc26a10, ALPL inhibitor-treated group): 0.19
- % increase, Slc26a10 (transporter gene Slc26a10, aged BBB, ALPL inhibition vs control): 17.8%
- pct, ALPL inh., Slc39a8 (transporter gene Slc39a8, ALPL inhibitor-treated group): 0.34
- % increase, Slc39a8 (transporter gene Slc39a8, aged BBB, ALPL inhibition vs control): 10.9%
- pct, ALPL inh., Slc39a10 (transporter gene Slc39a10, ALPL inhibitor-treated group): 0.89
- % increase, Slc39a10 (transporter gene Slc39a10, aged BBB, ALPL inhibition vs control): 12.1%
- % increase, Slc40a1 (transporter gene Slc40a1 (ferroportin), aged BBB, ALPL inhibition vs control): 35.0%
- pct, ALPL inh., Slc40a1 (transporter gene Slc40a1, ALPL inhibitor-treated group): 0.62
- pct, ALPL inh., Slco1c1 (transporter gene Slco1c1, ALPL inhibitor-treated group): 0.97
- % increase, Slco1c1 (transporter gene Slco1c1, aged BBB, ALPL inhibition vs control): 15.7%
